From PubChem BioAssay (NCI)
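Five compound concentrations were applied to cells in 96-well plates for 48 hours; endpoints were derived by simple linear interpolation of the resulting dose-response curve. TGI denotes the concentration required for complete inhibition of growth.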

What was measured:
Test in all cases: NCI-60 cell line screen, 48 h
A498 renal = system: A498 renal
CAKI-1 renal = system: CAKI-1 renal
EKVX NSCLC = system: EKVX NSCLC
HCT-116 colon = system: HCT-116 colon
HCT-15 colon = system: HCT-15 colon
HOP-62 NSCLC = system: HOP-62 NSCLC
HOP-92 NSCLC = system: HOP-92 NSCLC
HS 578T breast = system: HS 578T breast
HT29 colon = system: HT29 colon
M14 melanoma = system: M14 melanoma
MALME-3M melanoma = system: MALME-3M melanoma
MDA-MB-435 = system: MDA-MB-435
NCI-H226 lung = system: NCI-H226 lung
NCI-H460 lung = system: NCI-H460 lung
SK-OV-3 ovarian = system: SK-OV-3 ovarian
SN12C renal = system: SN12C renal
SNB-75 CNS = system: SNB-75 CNS
SR leukemia = system: SR leukemia
SW-620 colon = system: SW-620 colon
UO-31 renal = system: UO-31 renal

| Structure (SMILES) | TGI (A498 renal) [µM] | TGI (CAKI-1 renal) [µM] | TGI (EKVX NSCLC) [µM] | TGI (HCT-116 colon) [µM] | TGI (HCT-15 colon) [µM] | TGI (HOP-62 NSCLC) [µM] | TGI (HOP-92 NSCLC) [µM] | TGI (HS 578T breast) [µM] | TGI (HT29 colon) [µM] | TGI (M14 melanoma) [µM] | TGI (MALME-3M melanoma) [µM] | TGI (MDA-MB-435) [µM] | TGI (NCI-H226 lung) [µM] | TGI (NCI-H460 lung) [µM] | TGI (SK-OV-3 ovarian) [µM] | TGI (SN12C renal) [µM] | TGI (SNB-75 CNS) [µM] | TGI (SR leukemia) [µM] | TGI (SW-620 colon) [µM] | TGI (UO-31 renal) [µM] |
| --- | --- | --- | --- | --- | --- | --- | --- | --- | --- | --- | --- | --- | --- | --- | --- | --- | --- | --- | --- | --- |
| COc1ccc([C@H]2CC(=O)C[C@H](c3ccc(OC)cc3)C23C(=O)c2ccccc2C3=O)cc1 | > 100 | > 100 | > 100 | > 100 | > 100 | > 100 | > 100 | 87.8 | > 100 | > 100 | > 100 | 5.95 | > 100 | > 100 | > 100 | > 100 | 8.63 | 42.2 | > 100 | > 100 |
| O=C(NNC(=S)Nc1ccccc1)c1cc(-c2ccccc2)nc2ccccc12 | 28 | 64.8 |  | 28.5 | 33 | 33.3 | 37.7 | 65.6 | > 100 | 30.5 | 82.4 | 59.4 | 63.8 | > 100 | 43.2 | 40.6 | 71.3 | 32.9 | 49.9 | 31 |
| O=C1NCC(CSc2nc3cc(C4CCCc5c4[nH]c4ccccc54)ccc3o2)N1 (stereo not given) | 50.6 | > 100 | > 100 | > 100 | > 100 | > 100 | 71.2 | > 100 | > 100 | > 100 | > 100 | > 100 | > 100 | > 100 | > 100 | > 100 | > 100 | > 100 | > 100 | > 100 |
| COc1ccc(OC)c(-c2nc3n(c2/C=C2/C(=O)Nc4ccccc42)CCS3)c1 | > 100 | > 100 | > 100 | > 100 | > 100 | > 100 | > 100 | > 100 | > 100 | > 100 | > 100 | 40 | > 100 | > 100 | > 100 | > 100 | 83 | 94.4 | > 100 | > 100 |
| Cc1ccc([N+](=O)[O-])cc1S(=O)(=O)Nc1ccc(C2=NOC(c3ccco3)C2)cc1 (stereo not given) | 34.6 | 70.4 | 61.9 | 31.9 | 32 | 30.8 | 88.9 | > 100 | 56 | 32.8 | 53.5 | 11.8 | 39.6 | 37.2 | 97.4 | 52.6 | 35.7 | 23.8 | 58.9 | 32.8 |
| O=C(O)c1n[nH][nH]c1=S | > 100 | > 100 | > 100 | > 100 | > 100 | > 100 | > 100 | > 100 | > 100 | > 100 | > 100 | > 100 | > 100 | > 100 | > 100 | > 100 | > 100 | > 100 | > 100 | > 100 |
| CC(CC[C@@H](O)C(C)(C)O)C1[C@@H](O)CC2(C)C3CC(O)C4C(C)(C)[C@@H](OC5OC(CO)C(O)C(O)C5O)CC[C@@]45C[C@@]35CC[C@]12C (stereo not given in full) | > 10 | > 10 | > 10 | > 10 | > 10 | > 10 | > 10 | > 10 | > 10 | > 10 | > 10 | > 10 | > 10 | > 10 | > 10 | > 10 | > 10 | > 10 | > 10 |  |
| Cc1ccc(C2=Nn3c(nc4sc(C)c(C)c4c3=O)SC2)cc1 | > 100 | > 100 | > 100 | > 100 | > 100 | > 100 | > 100 | > 100 | > 100 |  | > 100 | > 100 | > 100 | > 100 | > 100 | > 100 | > 100 | > 100 | > 100 | > 100 |
| O=c1[nH]nc(-c2ccccc2)n1Nc1ccccc1 | > 100 | > 100 | > 100 | > 100 | > 100 |  | > 100 | > 100 | > 100 | > 100 | > 100 | > 100 | > 100 | > 100 | > 100 | > 100 | > 100 | > 100 | > 100 | > 100 |
| CCCCCC(C/C=N/N(C)C)C(O)(C(F)(F)F)C(F)(F)F (stereo not given) | 56 | > 100 | > 100 | > 100 | > 100 | > 100 | 78.2 | 91.8 | > 100 | > 100 | 67.1 | > 100 | > 100 | > 100 | > 100 | > 100 | 97.4 | > 100 | > 100 | > 100 |
| N=C(N)C1CN(CCCCCCCCCCN2CC(C(=N)N)C(=O)NC2=O)C(=O)NC1=O (stereo not given) | > 10 | > 10 | > 10 | > 10 | > 10 | > 10 | > 10 | > 10 | > 10 | > 10 | > 10 | > 10 | > 10 | > 10 | > 10 | > 10 | > 10 | > 10 | > 10 |  |
| c1ccc(-c2nnc(-c3ccccn3)c3c2C[C@@H]2C[C@@H]4Cc5c(-c6ccccn6)nnc(-c6ccccn6)c5[C@@H]4[C@H]32)nc1 | 6.35 | > 100 | 36.8 | > 100 | > 100 | > 100 | > 100 | > 100 | > 100 | 43.6 | > 100 | > 100 | > 100 | 88 | > 100 | > 100 | > 100 | > 100 | > 100 | > 100 |
| CCN1CCC(O)(c2ccc(Oc3ccccc3)cc2)C(C(=O)c2ccc(Oc3ccccc3)cc2)C1 (stereo not given) | 30.4 | 31.2 | 36.9 | 21.2 | 25.7 | 25.3 | 22.3 | 78.1 | 26.4 | 26.3 | 34.6 | 26.2 |  | 13.2 |  | 29.5 | 28.9 | 24.8 | 26.4 | 21.8 |
| COC(=O)C(Cc1ccccc1)NP(=O)(O)OCC1OC(n2cc(Br)c(=O)[nH]c2=O)CC1O (stereo not given) | > 100 |  | > 100 | > 100 | > 100 | > 100 | > 100 | > 100 | > 100 | > 100 | > 100 | > 100 | > 100 | > 100 | > 100 | > 100 | > 100 | > 100 | > 100 | > 100 |
| COC(=O)C1=C(C)NC(C)=C(C(=O)OC)C1c1ccccc1NO | > 100 | > 100 | > 100 | 48.2 | > 100 | > 100 | > 100 | > 100 | > 100 | > 100 | > 100 | > 100 | > 100 | > 100 | > 100 | > 100 |  | > 100 | > 100 | > 100 |
| N#CC(C#N)=C1c2ccccc2C(=NN)c2ccccc21 | > 100 | > 100 |  |  | > 100 | > 100 | > 100 | > 91.5 | > 100 | > 100 | > 100 | > 100 | > 100 |  | > 100 | > 100 | > 100 | > 100 | > 100 | > 100 |
| O=C1/C(=c2\s/c(=C\c3ccccc3)c(=O)n2-c2ccccc2)SC(=S)N1c1ccccc1 | > 100 | > 100 | > 100 | > 100 | > 100 |  | > 100 | > 100 | > 100 | > 100 | > 100 | > 100 | 89.4 | > 100 | 52.1 | > 100 | > 100 | > 100 | > 100 |  |
| CC1OC(OC2C(O)COC(OC3C(C)OC(OC4C(OC(=O)[C@]56CCC(C)(C)C[C@@H]5C5=CCC7[C@@]8(C)C[C@H](O)[C@H](OC9OC(CO)C(O)C(OC%10OC(CO)C(O)C(O)C%10O)C9O)[C@@](C)(CO)[C@@H]8CC[C@@]7(C)[C@]5(C)CC6)OCC(O)C4O)C(O)C3OC3OCC(O)(CO)C3O)C2O)C(O)C(O)C1O (stereo not given in full) | 20.4 | 12.4 | 13.2 | 32.2 | 19.1 | 20.7 | 19.7 | 22.4 |  | 13 | 13.2 | 24.4 | 23.4 | 36.2 | 18 | 12 | 21.3 | 16 | 15.7 | 10.3 |
